Measurements: publication PMC12368656 (2025)

Legend:
[1] = system: 3′-methylene blue- and 5′-thiol-modified oligonucleotide with affinity toward vancomycin (aptamer probe) (DNA, aptamer) CGAGGGTACCGCAATAGTACTTATTGTTCGCCTATTGTGGGTCGG; assay: electrochemical aptamer-based sensor, SWV titration, gold-coated microstructured electrode (MSE); conditions: Na+ (0.5 wt % NaCl); artificial sweat (0.1 wt % urea, 0.1 wt % lactic acid), pH 6.5, room temperature; apparent
[2] = system: 3′-methylene blue- and 5′-thiol-modified oligonucleotide with affinity toward vancomycin (aptamer probe) (DNA, aptamer) CGAGGGTACCGCAATAGTACTTATTGTTCGCCTATTGTGGGTCGG; assay: electrochemical aptamer-based sensor, SWV titration, planar gold electrode; conditions: Na+ (0.5 wt % NaCl); artificial sweat (0.1 wt % urea, 0.1 wt % lactic acid), pH 6.5, room temperature; apparent

SMILES: CN[C@H](CC(C)C)C(=O)N[C@H]1C(=O)N[C@@H](CC(N)=O)C(=O)N[C@H]2C(=O)N[C@H]3C(=O)N[C@H](C(=O)N[C@H](C(=O)O)c4cc(O)cc(O)c4-c4cc3ccc4O)[C@H](O)c3ccc(c(Cl)c3)Oc3cc2cc(c3O[C@@H]2O[C@H](CO)[C@@H](O)[C@H](O)[C@H]2O[C@H]2C[C@](C)(N)[C@H](O)[C@H](C)O2)Oc2ccc(cc2Cl)[C@H]1O
- KD [1]: 46.6 ± 4.1 µM
- KD [2]: 26.3 ± 3.3 µM
